PubChem BioAssay AID652001 (The Scripps Research Institute Molecular Screening Center, 2013)
pIC50, pKi: −log10 of the molar value.

How the values were obtained:
[1] = target: Acyl-protein thioesterase 2 (Homo sapiens) (UniProt O95372); experiment: LYPLA2 enzyme kinetics with inhibitors – biochemical, substrate-based fluorescence, Ki, Km, Vmax, late-stage follow-up (AID 652001); conditions: recombinant LYPLA2, resorufin acetate hydrolysis fluorescence
[2] = target: LYPLA2; experiment: as above; conditions: recombinant LYPLA2, resorufin acetate hydrolysis fluorescence, Ki from Cheng-Prusoff

Sequence of Acyl-protein thioesterase 2 (Homo sapiens) (O95372 whole entry, looked up): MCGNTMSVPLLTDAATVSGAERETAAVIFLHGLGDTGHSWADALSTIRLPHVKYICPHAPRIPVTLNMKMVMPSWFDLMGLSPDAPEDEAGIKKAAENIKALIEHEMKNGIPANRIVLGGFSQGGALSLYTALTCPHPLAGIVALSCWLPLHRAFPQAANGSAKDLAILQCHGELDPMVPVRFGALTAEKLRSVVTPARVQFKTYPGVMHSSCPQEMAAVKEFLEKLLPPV

- pIC50 [1]: 6.29
- pKi [2]: 6.64
Structure (SMILES): COc1ccc(N2CCN(C(=O)c3cc4c(s3)-c3ccccc3S(=O)(=O)C4)CC2)cc1
